ChEMBL document CHEMBL4118141, “Design, synthesis and biological evaluation of novel hydrogen sulfide releasing capsaicin derivatives” (Bioorg Med Chem, 2018)
The source made the active and inactive calls. No cut-off for these calls is given here.

How the values were obtained:
Mus musculus [1] = experiment: Ulcerogenic activity in Kunming mouse assessed as lesion in stomach at 30 mg/kg, po qd for 6 days measured on day 7 by microscopic analysis; format: toxicity, organism-based; conditions: in vivo, 144 h
Mus musculus [2] = experiment: Antinociceptive activity in capsaicin-induced nociception pain Kunming mouse model assessed as reduction in time spent in paw licking at 60 mg/kg, po pretreated for 30 mins followed by capsaicin challenge measured for 5 mins post capsaicin challenge; format: functional, organism-based
[3] = biological target: Transient receptor potential cation channel subfamily V member 1 (Homo sapiens) (UniProt Q8NER1); experiment: Agonist activity at human TRPV1 expressed in HEK293 cells assessed as increase in calcium influx by measuring ratio of 340/380 nm excitatory wavelength at 10 uM treated for 2 mins by Fura-2AM dye-based fluorescence assay; format: cell-based
Chain of Transient receptor potential cation channel subfamily V member 1 (Homo sapiens) (Q8NER1 whole entry): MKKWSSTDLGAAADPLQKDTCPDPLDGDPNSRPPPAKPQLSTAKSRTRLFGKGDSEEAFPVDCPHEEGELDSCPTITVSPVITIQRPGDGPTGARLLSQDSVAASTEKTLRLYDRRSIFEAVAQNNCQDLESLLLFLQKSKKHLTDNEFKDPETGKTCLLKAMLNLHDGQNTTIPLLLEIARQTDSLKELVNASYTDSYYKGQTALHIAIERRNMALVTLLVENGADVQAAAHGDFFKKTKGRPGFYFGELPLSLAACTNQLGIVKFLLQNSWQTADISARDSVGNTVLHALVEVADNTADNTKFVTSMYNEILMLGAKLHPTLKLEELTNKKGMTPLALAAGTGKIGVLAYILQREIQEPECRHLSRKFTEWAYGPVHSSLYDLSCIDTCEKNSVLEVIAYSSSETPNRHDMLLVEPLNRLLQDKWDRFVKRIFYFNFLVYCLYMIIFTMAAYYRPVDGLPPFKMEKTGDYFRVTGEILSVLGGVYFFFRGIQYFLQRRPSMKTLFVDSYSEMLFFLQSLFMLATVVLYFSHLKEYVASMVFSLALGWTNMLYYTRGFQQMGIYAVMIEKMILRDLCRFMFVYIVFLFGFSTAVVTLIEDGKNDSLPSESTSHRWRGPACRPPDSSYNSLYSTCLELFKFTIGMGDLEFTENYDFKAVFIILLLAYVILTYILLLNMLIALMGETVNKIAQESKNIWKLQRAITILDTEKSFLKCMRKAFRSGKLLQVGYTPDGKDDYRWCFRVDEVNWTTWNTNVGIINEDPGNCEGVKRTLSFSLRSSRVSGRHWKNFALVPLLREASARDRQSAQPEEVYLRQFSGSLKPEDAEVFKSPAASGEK

MCF7 = experiment: Antiproliferative activity against human MCF7 cells after 48 hrs by MTT assay; format: functional, cell-based; conditions: MCF7, 48 h
HeLa = experiment: Antiproliferative activity against human HeLa cells after 48 hrs by MTT assay; format: functional, cell-based
Mus musculus [4] = experiment: Antinociceptive activity in Kunming mouse model assessed as inhibition of acetic acid-induced writhes at 60 mg/kg, po pretreated for 30 mins followed by acetic acid challenge measured for 15 mins post acetic acid challenge; format: functional, organism-based
Mus musculus [5] = experiment: Antinociceptive activity in Kunming mouse model of thermal-induced nociception assessed as increase in latency to tail withdrawal at 60 mg/kg, po by tail flick test; format: functional, organism-based
K562 = experiment: Antiproliferative activity against human K562 cells after 48 hrs by MTT assay; format: functional, cell-based; conditions: K562, 48 h
[6] = Acute toxicity in po dosed CD rat measured for 7 days; format: organism-based; conditions: in vivo

SMILES | Ratio [3] | IC50 (MCF7) [µM] | IC50 (HeLa) [µM] | IC50 (K562) [µM] | Activity (Mus musculus [1]) | Activity (Mus musculus [2]) | inhibition (Mus musculus [4]) | Activity (Mus musculus [5]) | LD50 at 168 h [6] [mg/kg]
COc1cc(CNC(=O)CCCC/C=C/C(C)C)ccc1OC(=O)CCC(=O)Oc1ccc(-c2cc(=S)ss2)cc1 | 2.1 | 2.12 | 4.25 | 4.45 | Non-Toxic | Active | Active | Active | 
COc1cc(CNC(=O)CCCCCCC(C)C)ccc1O [DIHYDROCAPSAICIN] | 2 | > 50 | > 50 | > 50 |  |  |  |  | 
COc1cc(CNC(=O)CCCCCCC(C)C)ccc1OCCCCCOc1ccc(-c2cc(=S)ss2)cc1 | 1.69 | 48.6 | > 50 | > 50 |  | Active | Active |  | 
COc1cccc2c1C(=O)c1c(O)c3c(c(O)c1C2=O)C[C@@](O)(C(=O)CO)C[C@@H]3O[C@H]1C[C@H](N)[C@H](O)[C@H](C)O1 [DOXORUBICIN] |  |  | 0.451 | 1.51 |  |  |  |  | 
COc1cc(CNC(=O)CCCCCCC(C)C)ccc1OC(=O)CCC(=O)Oc1ccc(-c2cc(=S)ss2)cc1 | 1.96 | 2.56 | 5.53 | 5.93 |  | Active | Active |  | 
COc1cc(CNC(=O)CCCCCCC(C)C)ccc1OC(=O)c1ccc(C(N)=S)cc1 | 1.69 | > 50 | > 50 | > 50 |  | Active | Active |  | 
COc1cc(CNC(=O)CCCC/C=C/C(C)C)ccc1O [CAPSAICIN] |  | 50 | > 50 | 49.4 | Toxic |  |  |  | 161
COc1cc(CNC(=O)CCCCCCC(C)C)ccc1OCCCCCOc1ccc(C(N)=S)cc1 | 1.76 | 49.3 | > 50 | > 50 |  | Active | Active |  | 
COc1cc(CNC(=O)CCCC/C=C/C(C)C)ccc1OC(=O)CCC(=O)Oc1ccc(C(N)=S)cc1 | 1.94 | > 50 | > 50 | > 50 | Non-Toxic | Active | Active |  | 
COc1cc(CNC(=O)CCCC/C=C/C(C)C)ccc1OC(=O)c1ccc(C(N)=S)cc1 | 1.77 | 39.4 | 39.6 | > 50 | Non-Toxic | Active | Active |  | 
CC(C)(C)c1ccc(NC(=O)N2CCN(c3ncccc3Cl)CC2)cc1 |  |  |  |  |  |  |  | Active | 
COc1cc(CNC(=O)CCCCCCC(C)C)ccc1OC(=O)CCC(=O)Oc1ccc(C(N)=S)cc1 | 1.87 |  | > 50 |  |  | Active | Active |  | 

Continued, in another order:

Ratio [3] | IC50 (MCF7) [µM] | IC50 (HeLa) [µM] | IC50 (K562) [µM] | SMILES | Activity (Mus musculus [1]) | Activity (Mus musculus [2]) | inhibition (Mus musculus [4]) | Activity (Mus musculus [5]) | LD50 at 168 h [6] [mg/kg]
1.71 | > 50 | > 50 | > 50 | COc1cc(CNC(=O)CCCC/C=C/C(C)C)ccc1OCCCCCOc1ccc(-c2cc(=S)ss2)cc1 |  | Active | Active |  | 
1.7 | 49.8 | > 50 | > 50 | COc1cc(CNC(=O)CCCC/C=C/C(C)C)ccc1OCCCCOc1ccc(C(N)=S)cc1 |  | Active | Active |  | 
1.69 | 49.5 | 44.6 | > 50 | COc1cc(CNC(=O)CCCCCCC(C)C)ccc1OCCCCOc1ccc(-c2cc(=S)ss2)cc1 |  | Active | Active |  | 
1.87 | 17.2 | 46.4 | > 50 | COc1cc(CNC(=O)CCCC/C=C/C(C)C)ccc1OCCCCCOc1ccc(C(N)=S)cc1 |  | Active | Active |  | 
1.96 | 36.4 | 47.1 | > 50 | COc1cc(CNC(=O)CCCC/C=C/C(C)C)ccc1OCCCCOc1ccc(-c2cc(=S)ss2)cc1 | Non-Toxic | Active | Active | Active | 
1.59 | 4.99 | 40.7 | > 50 | COc1cc(CNC(=O)CCCCCCC(C)C)ccc1OCCCCOc1ccc(C(N)=S)cc1 |  | Active | Active |  | 
